Experimental data reported in patent publication US4562287A, “2-(4-Biphenylyl)-4-hexenoic acid and derivatives thereof having anti-inflammatory activity” (priority 1983, dated 1985).
Structures can show the parent of a compound that is named as a salt.

Experiments:
[1] = tested on: Carragenine induced edema; test: Activity on carragenine induced edema (Table 9); format: in vivo
Description: |Activity on carragenine induced edema.

in vivo = settings: po, rat, p.o., read-out: DL50 (the source's name)
[2] = tested on: Carragenine induced edema; test: Carragenine induced edema, first test (Table 2); format: in vivo
Description: |ANTI-INFLAMMATORY ACTIVITY. |Carragenine induced edema, first test.

[3] = tested on: Freund's adjuvant induced arthritis; test: Freund's adjuvant induced arthritis, edema inhibition
Joint's diameter = Joint's diameter in arthritis (Table 7); format: in vivo; set-up: unit not given here
ulcerogenic effect = test: Ulcerogenic effect; format: in vivo; settings: dose 50 mg
[4] = tested on: Carragenine induced edema; test: Anti-inflammatory activity on carragenine induced edema (Table 11); format: in vivo; settings: for % inhibition: 50 mg/Kg p.o.
SH Groups in serum = test: SH groups in serum (Table 8); format: in vivo; settings: arthritis checks 70, 77
[5] = tested on: erytrocytes sedimetation rate (ESR); test: Erytrocytes sedimetation rate (ESR) (Table 8); format: in vivo; set-up: unit not given here; settings: arthritis checks 41, 56
Serotonin edema = test: Edema induced by different substances: serotonin (Table 3); format: in vivo
Description: (§1) |Edema induced by different substances.

Dextrose edema = test: Edema induced by different substances: dextrose (Table 3); format: in vivo
Description: as §1

Kaolin edema = test: Edema induced by different substances: kaolin (Table 3); format: in vivo
Description: as §1

Yeast edema = test: Edema induced by different substances: yeast (Table 3); format: in vivo
Description: |Edema induced by different substances. | % edema inhibition

[6] = tested on: capillary permeability (Histamine); test: Effect on the capillary permeability, histamine; format: in vivo; settings: 200 mg/Kg p.o., checks 21.33, 200 mg/kg
Description: (§2) |Effect on the capillary permeability

[7] = tested on: capillary permeability (Dextran); test: Effect on the capillary permeability, dextran; format: in vivo; settings: 200 mg/Kg p.o., checks 14.83, 200 mg/kg
Description: as §2

Carragenine edema = test: Edema induced by different substances: carragenine (Table 3); format: in vivo
Description: as §1

[8] = tested on: Cotton-pellets induced granuloma; test: Cotton-pellets induced granuloma; format: in vivo; settings: 200 mg/Kg p.o.
Description: | Cotton-pellets induced granuloma.

[9] = tested on: capillary permeability (Serotonin); settings: 200 mg/Kg p.o., checks 18.16

Structure (SMILES): CC=CCC(C(=O)O)c1ccc(-c2ccc(Cl)cc2)cc1 (racemic) [SCR 158, 2-[4-biphenylyl-(4' chloro)]4-hexenoic acid]
- Inhibition % ([1]; 56 mg/Kg p.o.): 0%
- Inhibition % ([1]; 85 mg/Kg p.o.): 16%
- Inhibition % ([1]; 127 mg/Kg p.o.): 14%
- LD50 (in vivo): 940 mg/kg

Structure (SMILES): CC=CCC(C(=O)O)c1ccc(-c2ccccc2)cc1 (single isomer, unassigned) [SCR 153, Triethanolamine salt of dextrogyre form]
- % inhibition ([2]; 12.5 mg/Kg p.o.): 24%
- % inhibition ([2]; 25 mg/Kg p.o.): 29%
- % inhibition ([2]; 50 mg/Kg p.o.): 45%
- % inhibition ([2]; 100 mg/Kg p.o.): 53%
- Edema inhibition % ([3]; 20 mg/Kg p.o., 2 days): 40%
- Edema inhibition % ([3]; 20 mg/Kg p.o., 4 days): 24%
- Edema inhibition % ([3]; 20 mg/Kg p.o., 8 days): 52%
- Edema inhibition % ([3]; 20 mg/Kg p.o., 12 days): 49%
- Edema inhibition % ([3]; 20 mg/Kg p.o., 16 days): 30%
- Edema inhibition % ([3]; 20 mg/Kg p.o., 20 days): 22%
- Edema inhibition % ([3]; 20 mg/Kg p.o., 24 days): 10%
- Edema inhibition % ([3]; 40 mg/Kg p.o., 2 days): 60%
- Edema inhibition % ([3]; 40 mg/Kg p.o., 4 days): 40%
- Edema inhibition % ([3]; 40 mg/Kg p.o., 8 days): 56%
- Edema inhibition % ([3]; 40 mg/Kg p.o., 12 days): 61%
- Edema inhibition % ([3]; 40 mg/Kg p.o., 16 days): 59%
- Edema inhibition % ([3]; 40 mg/Kg p.o., 20 days): 56%
- Edema inhibition % ([3]; 40 mg/Kg p.o., 24 days): 55%
- Joint's diameter (Joint's diameter; 20 mg/Kg p.o., 1 week, arthritis checks 0.48, 0.38): 0.46
- Joint's diameter (Joint's diameter; 20 mg/Kg p.o., 2 weeks, arthritis checks 0.71, 0.75): 0.61
- Joint's diameter (Joint's diameter; 20 mg/Kg p.o., 3 weeks, arthritis checks 0.81, 0.79): 0.62
- Joint's diameter (Joint's diameter; 20 mg/Kg p.o., 4 weeks, arthritis checks 0.85, 0.89): 0.73
- Joint's diameter (Joint's diameter; 40 mg/Kg p.o., 1 week, arthritis checks 0.48, 0.38): 0.24
- Joint's diameter (Joint's diameter; 40 mg/Kg p.o., 2 weeks, arthritis checks 0.71, 0.75): 0.39
- Joint's diameter (Joint's diameter; 40 mg/Kg p.o., 3 weeks, arthritis checks 0.81, 0.79): 0.44
- Joint's diameter (Joint's diameter; 40 mg/Kg p.o., 4 weeks, arthritis checks 0.85, 0.89): 0.52
- ulcerogenic effect (ulcerogenic effect): it is doubtful that above dose (50 mg) of SCR 153 could have any ulcerogenic effect
- anti-inflammatory effect compared with 5 mg of indomethacin ([4]; 50 mg SCR 153 vs 5 mg indomethacin): near equal to the one obtained with 5 mg of indomethacin
- % inhibition [4]: 37%
- SH groups diminution in % (SH Groups in serum; 20 mg/Kg p.o.): 79%
- SH groups diminution in % (SH Groups in serum; 40 mg/Kg p.o.): 48%
- E.S.R. ([5]; 20 mg/Kg p.o.): 59
- E.S.R. ([5]; 40 mg/Kg p.o.): 32

Structure (SMILES): CC=CCC(C(=O)O)c1ccc(-c2ccccc2)cc1 (single isomer, unassigned; (+)) [SCR 152, (+) 2-(4-biphenylyl)-4-hexenoic acid]
- % edema inhibition (Serotonin edema; 50 mg/Kg p.o., 50 mg/kg): 3%
- % edema inhibition (Serotonin edema; 100 mg/Kg p.o., 100 mg/kg): 3%
- % edema inhibition (Serotonin edema; 200 mg/Kg p.o., 200 mg/kg): 17%
- % edema inhibition (Dextrose edema; 50 mg/Kg p.o., 50 mg/kg): 12%
- % edema inhibition (Dextrose edema; 100 mg/Kg p.o., 100 mg/kg): 39%
- % edema inhibition (Dextrose edema; 200 mg/Kg p.o., 200 mg/kg): 45%
- % edema inhibition (Kaolin edema; 50 mg/Kg p.o., 50 mg/kg): 19%
- % edema inhibition (Kaolin edema; 100 mg/Kg p.o., 100 mg/kg): 40%
- % edema inhibition (Kaolin edema; 200 mg/Kg p.o., 200 mg/kg): 40%
- ulcerogenic effect (ulcerogenic effect): exhibits none ulcerogenic effect
- % inhibition [4]: 31%
- anti-inflammatory effect (in words) ([4]; dose of 50 mg): rather good anti-inflammatory effect
- % edema inhibition (Yeast edema; 50 mg/Kg p.o.): 13%
- % edema inhibition (Yeast edema; 100 mg/Kg p.o., 100 mg/kg): 25%
- % edema inhibition (Yeast edema; 200 mg/Kg p.o., 200 mg/kg): 17%
- Effect on the capillary permeability, .0. m.micron [6]: 21.57 m.micron
- Effect on the capillary permeability, .0. m.micron [7]: 8.00 m.micron
- % edema inhibition (Carragenine edema; 50 mg/Kg p.o., 50 mg/kg): 54%
- % edema inhibition (Carragenine edema; 100 mg/Kg p.o., 100 mg/kg): 52%
- % edema inhibition (Carragenine edema; 200 mg/Kg p.o., 200 mg/kg): 66%
- % inhibition [8]: 12%
- Effect on the capillary permeability, .0. m.micron [9]: 17.71 m.micron

Structure (SMILES): CC=CCC(C(=O)O)c1ccc(-c2ccccc2)cc1 (single isomer, unassigned; (-)) [SCR 156, (-) 2-(4-biphenylyl)-4-hexenoic acid]
- % edema inhibition (Serotonin edema; 50 mg/Kg p.o., 50 mg/kg): 0%
- % edema inhibition (Serotonin edema; 100 mg/Kg p.o., 100 mg/kg): 13%
- % edema inhibition (Serotonin edema; 200 mg/Kg p.o., 200 mg/kg): 0%
- % edema inhibition (Dextrose edema; 50 mg/Kg p.o., 50 mg/kg): 14%
- % edema inhibition (Dextrose edema; 100 mg/Kg p.o., 100 mg/kg): 5%
- % edema inhibition (Dextrose edema; 200 mg/Kg p.o., 200 mg/kg): 12%
- % edema inhibition (Kaolin edema; 50 mg/Kg p.o., 50 mg/kg): 32%
- % edema inhibition (Kaolin edema; 100 mg/Kg p.o., 100 mg/kg): 26%
- % edema inhibition (Kaolin edema; 200 mg/Kg p.o., 200 mg/kg): 28%
- % edema inhibition (Yeast edema; 50 mg/Kg p.o.): 13%
- % edema inhibition (Yeast edema; 100 mg/Kg p.o., 100 mg/kg): 5%
- % edema inhibition (Yeast edema; 200 mg/Kg p.o., 200 mg/kg): 7%
- Effect on the capillary permeability, .0. m.micron [6]: 21.00 m.micron
- Effect on the capillary permeability, .0. m.micron [7]: 13.58 m.micron
- % edema inhibition (Carragenine edema; 50 mg/Kg p.o., 50 mg/kg): 9%
- % edema inhibition (Carragenine edema; 100 mg/Kg p.o., 100 mg/kg): 31%
- % edema inhibition (Carragenine edema; 200 mg/Kg p.o., 200 mg/kg): 23%
- % inhibition [8]: 11%
- Effect on the capillary permeability, .0. m.micron [9]: 16.43 m.micron
